Earlier results as cited in PubChem BioAssay AID1259409 (Chemical Carcinogenesis Research Information System (CCRIS), 2018).

Test system: rodent chemically induced tumor inhibition, incidence and multiplicity
Assay: CCRIS tumor inhibitor studies

Structure (SMILES): O=C1C=CC(=O)O1 (tested in a mixture with another compound)
- tumour outcome (control, treated, inhibition, significance) (Carcinogen: N-BUTYL-N-(4-HYDROXYBUTYL)NITROSAMINE, 3817-11-6, Dose [Inhibitor]: 12.5 MG/KG IN 4 WK CYCLES OF 1/WK FOR 3 WK AND 1 WK REST STARTING 1 WK AFTER CARCINOGEN ADMINISTRATION THROUGH END OF ST, Route [Inhibitor]: INTRAPERITONEAL, Species: MOUSE, Strain/Sex: BDF1/MALE, Target Tissue: Type of Lesion: URINARY BLADDER: TRANSITIONAL CELL CARCINOMA, Dose [Carcinogen]: 7.5 MG 1/WK FOR 8 WK, Promoter: NONE USED): 19/50 (38%), 14/50 (28%), 26%, not significant
- tumour outcome (control, treated, inhibition, significance) (Carcinogen: N-BUTYL-N-(4-HYDROXYBUTYL)NITROSAMINE, 3817-11-6, Dose [Inhibitor]: 12.5 MG/KG IN 4 WK CYCLES OF 3 WK DOSE (1 DOSE/WK) AND 1 WK REST STARTING 1 WK AFTER CARCINOGEN DOSE THROUGH END OF STUD, Route [Inhibitor]: INTRAPERITONEAL, Species: MOUSE, Strain/Sex: DBF1/MALE, Target Tissue: Type of Lesion: URINARY BLADDER: TRANSITIONAL CELL CARCINOMA, Dose [Carcinogen]: 7.5 MG 1/WK FOR 8 WK, Promoter: NONE USED): 19/50 (38%), 14/50 (28%), 26%, not significant
- tumour outcome (control, treated, inhibition, significance) (Carcinogen: N-BUTYL-N-(4-HYDROXYBUTYL)NITROSAMINE, 3817-11-6, Dose [Inhibitor]: 25 MG/KG IN 4 WK CYCLES OF 1/WK FOR 3 WK AND 1 WK REST STARTING 1 WK AFTER CARCINOGEN ADMINISTRATION THROUGH END OF STUD, Route [Inhibitor]: INTRAPERITONEAL, Species: MOUSE, Strain/Sex: BDF1/MALE, Target Tissue: Type of Lesion: URINARY BLADDER: TRANSITIONAL CELL CARCINOMA, Dose [Carcinogen]: 7.5 MG 1/WK FOR 8 WK, Promoter: NONE USED): 19/50 (38%), 7/46 (15%), 61%, p<0.05
- tumour outcome (control, treated, inhibition, significance) (Carcinogen: N-BUTYL-N-(4-HYDROXYBUTYL)NITROSAMINE, 3817-11-6, Dose [Inhibitor]: 25 MG/KG IN 4 WK CYCLES OF 3 WK DOSE (1 DOSE/WK) AND 1 WK REST STARTING 1 WK AFTER CARCINOGEN DOSE THROUGH END OF STUDY, Route [Inhibitor]: INTRAPERITONEAL, Species: MOUSE, Strain/Sex: DBF1/MALE, Target Tissue: Type of Lesion: URINARY BLADDER: TRANSITIONAL CELL CARCINOMA, Dose [Carcinogen]: 7.5 MG 1/WK FOR 8 WK, Promoter: NONE USED): 19/50 (38%), 7/46 (15%), 61%, p<0.05
- tumour outcome (control, treated, inhibition, significance) (Carcinogen: N-METHYL-N-NITROSOUREA, 684-93-5, Dose [Inhibitor]: 12.5 MG/KG IN 4 WK CYCLES OF 1/WK FOR 3 WK AND 1 WK REST STARTING 7 D AFTER CARCINOGEN ADMINISTRATION THROUGH END OF STU, Route [Inhibitor]: INTRAPERITONEAL, Species: RAT, Strain/Sex: SPRAGUE-DAWLEY/FEMALE, Target Tissue: Type of Lesion: MAMMARY GLAND: ADENOCARCINOMA, Dose [Carcinogen]: 20 MG/KG BW ONCE, Promoter: NONE USED): 64%, 52%, 19%, not significant
- tumour outcome (control, treated, inhibition, significance) (Carcinogen: N-METHYL-N-NITROSOUREA, 684-93-5, Dose [Inhibitor]: 12.5 MG/KG IN 4 WK CYCLES OF 3 WK DOSE (1 DOSE/WK) AND 1 WK REST STARTING 7 D AFTER CARCINOGEN DOSE THROUGH THE END OF S, Route [Inhibitor]: INTRAPERITONEAL, Species: RAT, Strain/Sex: SPRAGUE-DAWLEY/FEMALE, Target Tissue: Type of Lesion: MAMMARY GLAND: ADENOCARCINOMA, Dose [Carcinogen]: 20 MG/KG BW ONCE, Promoter: NONE USED): 64%, 52%, 19%, not significant
- tumour outcome (control, treated, inhibition, significance) (Carcinogen: N-METHYL-N-NITROSOUREA, 684-93-5, Dose [Inhibitor]: 25 MG/KG IN 4 WK CYCLES OF 1/WK FOR 3 WK AND 1 WK REST STARTING 7 D AFTER CARCINOGEN ADMINISTRATION THROUGH END OF STUDY, Route [Inhibitor]: INTRAPERITONEAL, Species: RAT, Strain/Sex: SPRAGUE-DAWLEY/FEMALE, Target Tissue: Type of Lesion: MAMMARY GLAND: ADENOCARCINOMA, Dose [Carcinogen]: 20 MG/KG BW ONCE, Promoter: NONE USED): 64%, 50%, 22%, not significant
- tumour outcome (control, treated, inhibition, significance) (Carcinogen: N-METHYL-N-NITROSOUREA, 684-93-5, Dose [Inhibitor]: 25 MG/KG IN 4 WK CYCLES OF 3 WK DOSE (1 DOSE/WK) AND 1 WK REST STARTING 7 D AFTER CARCINOGEN DOSE THROUGH END OF STUDY (, Route [Inhibitor]: INTRAPERITONEAL, Species: RAT, Strain/Sex: SPRAGUE-DAWLEY/FEMALE, Target Tissue: Type of Lesion: MAMMARY GLAND: ADENOCARCINOMA, Dose [Carcinogen]: 20 MG/KG BW ONCE, Promoter: NONE USED): 64%, 50%, 22%, not significant

Structure (SMILES): C=C1CC[C@H]2[C@](C)(COC(=O)[C@@H](CC(=O)O)[C@@H](OC[C@H]3C(=C)CC[C@H]4[C@](C)(CO)CCC[C@]34C)C(=O)OC)CCC[C@]2(C)[C@H]1CO[C@@H](C(=O)OC)[C@H](CC(=O)O)C(=O)OC
- tumour outcome (control, treated, inhibition, significance) (Carcinogen: 1,2-DIMETHYLHYDRAZINE DIHYDROCHLORIDE, 306-37-6, Dose [Inhibitor]: 0: 0.06% IN DIET FOR DURATION OF STUDY (STUDY DURATION: 25 WK), Route [Inhibitor]: ORAL, Species: MOUSE, Strain/Sex: ICR/FEMALE, Target Tissue: Type of Lesion: COLON: TUMOR, Dose [Carcinogen]: 10 MG/KG BW IN 0.9% SALINE 1/WK FOR 15 WK, Promoter: NONE USED): 10/16 (63%), 5/16 (31%), 51%, not significant
- tumour outcome (control, treated, inhibition, significance) (Carcinogen: 7,12-DIMETHYLBENZ[A]ANTHRACENE, 57-97-6, Dose [Inhibitor]: 0, 1 MG 2/WK FOR 20 WK APPLIED 10 MIN PRIOR TO EACH PROMOTER DOSE (STUDY DURATION: 20 WK), Route [Inhibitor]: DERMAL, Species: MOUSE, Strain/Sex: CD-1/FEMALE, Target Tissue: Type of Lesion: SKIN: TUMOR, Dose [Carcinogen]: 100 UG ONCE, Promoter: OKADAIC ACID, 78111-17-8): 73%, 53%, 27%, not calculated
- tumour outcome (control, treated, inhibition, significance) (Carcinogen: 7,12-DIMETHYLBENZ[A]ANTHRACENE, 57-97-6, Dose [Inhibitor]: 0, 5 MG 2/WK FOR 20 WK APPLIED 10 MIN PRIOR TO EACH PROMOTER DOSE (STUDY DURATION: 20 WK), Route [Inhibitor]: DERMAL, Species: MOUSE, Strain/Sex: CD-1/FEMALE, Target Tissue: Type of Lesion: SKIN: TUMOR, Dose [Carcinogen]: 100 UG ONCE, Promoter: OKADAIC ACID, 78111-17-8): 73%, 20%, 73%, not calculated
- tumour outcome (control, treated, inhibition, significance) (Carcinogen: N-METHYL-N-NITROSOUREA, 684-93-5, Dose [Inhibitor]: 0, 0.2% IN DIET FOR 33 WK BEGINNING POST CARCINOGEN TREATMENT (STUDY DURATION: 35 WK), Route [Inhibitor]: ORAL, Species: RAT, Strain/Sex: F344/FEMALE, Target Tissue: Type of Lesion: COLON: TUMOR, Dose [Carcinogen]: 2 MG 3/WK FOR 2 WK, Promoter: NONE USED): 12/16 (75%), 5/16 (31%), 57%, p<0.05

Structure (SMILES): COc1ccc2nc(S(=O)Cc3ncc(C)c(OC)c3C)[nH]c2c1 (stereo not drawn)
- tumour outcome (control, treated, inhibition, significance) (Carcinogen: AZOXYMETHANE, 25843-45-2, Dose [Inhibitor]: 0, 40 UMOL/KG 1/D FOR 27 WK BEGINNING 6 WK PRIOR TO CARCINOGEN TREATMENT (STUDY DURATION: 27 WK), Route [Inhibitor]: GAVAGE, Species: RAT, Strain/Sex: SPRAGUE-DAWLEY/FEMALE, Target Tissue: Type of Lesion: COLON: TUMOR, Dose [Carcinogen]: 10 MG/KG 1/WK FOR 12 WK, Promoter: NONE USED): 19/20 (95%), 12/19 (63%), 34%, p<0.02
